According to ChEMBL document CHEMBL3351305, “Structure-based design of a novel series of azetidine inhibitors of the hepatitis C virus NS3/4A serine protease” (Bioorg Med Chem Lett, 2014):
Activity calls are given as the source filed them. The rule behind the calls is not given here.

Assays:
Hepatitis C virus = assay: Antiviral activity against Hepatitis C virus genotype 1b Con1 infected in human Huh7 cells assessed as inhibition of NS4A expression by ELISA; type: functional, cell-based, Hepacivirus hominis; details: genotype 1b Con1, Huh-7
[1] = target: Hepatitis C virus serine protease, NS3/NS4A (Hepatitis C virus, UniProt A3EZI9+D2K2A8); assay: Inhibition of full length Hepatitis C virus genotype 1b Con1 NS3/4A by FRET assay; parameters: species or system Hepatitis C virus (isolate Con1)
[2] = test system: Hepatitis C virus serine protease, NS3/NS4A (Hepatitis C virus), D2K2A8+A3EZI9 [A156S]; assay: Inhibition of Hepatitis C virus genotype 1b Con1 NS3/4A A156S mutant by FRET assay; details: Hepatitis C virus (isolate Con1)
[3] = Clearance in human liver microsomes assessed per mg protein; type: ADME; details: read-out: CLH
[4] = Clearance in rat liver microsomes assessed per mg protein; type: ADME; details: read-out: CLH
[5] = Clearance in cynomolgus monkey liver microsomes assessed per mg protein; type: ADME, Macaca fascicularis; details: read-out: CLH
[6] = Half life in cynomolgus monkey liver microsomes; type: ADME, Macaca fascicularis
[7] = Half life in rat liver microsomes; type: ADME
[8] = Half life in human liver microsomes; type: ADME
[9] = Inhibition of human leukocyte elastase
[10] = Selectivity index, ratio of CC50 for human Huh7 cells to EC50 for Hepatitis C virus genotype 1b Con1; type: toxicity, cell-based, Huh-7; details: read-out: Ratio CC50/EC50

Chain of Hepatitis C virus serine protease, NS3/NS4A (D2K2A8 whole entry): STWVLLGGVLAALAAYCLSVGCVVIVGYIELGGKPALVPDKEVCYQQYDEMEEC
Chain of Hepatitis C virus serine protease, NS3/NS4A (A3EZI9 whole entry): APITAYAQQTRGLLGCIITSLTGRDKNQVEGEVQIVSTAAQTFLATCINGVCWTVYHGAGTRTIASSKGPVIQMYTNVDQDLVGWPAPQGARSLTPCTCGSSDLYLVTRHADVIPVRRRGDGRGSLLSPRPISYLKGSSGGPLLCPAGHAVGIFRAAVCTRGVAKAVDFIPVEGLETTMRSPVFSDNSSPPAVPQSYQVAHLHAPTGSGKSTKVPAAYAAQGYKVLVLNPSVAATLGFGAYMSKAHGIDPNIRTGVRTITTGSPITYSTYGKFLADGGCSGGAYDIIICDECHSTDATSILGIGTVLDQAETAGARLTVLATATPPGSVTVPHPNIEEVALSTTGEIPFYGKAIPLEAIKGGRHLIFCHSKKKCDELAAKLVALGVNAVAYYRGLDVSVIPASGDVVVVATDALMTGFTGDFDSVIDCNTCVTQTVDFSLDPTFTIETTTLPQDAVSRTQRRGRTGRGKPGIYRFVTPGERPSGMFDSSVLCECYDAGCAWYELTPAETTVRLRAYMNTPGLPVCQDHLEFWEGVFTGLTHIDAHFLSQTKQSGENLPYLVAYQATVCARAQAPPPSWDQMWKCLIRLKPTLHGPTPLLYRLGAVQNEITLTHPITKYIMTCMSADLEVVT

EC50 (Hepatitis C virus) [nM]	IC50 [1] [nM]	Structure (SMILES)	other results
2.8	0.8	COc1ccc2c(O[C@@H]3C[C@H]4C(=O)N[C@]5(C(=O)O)C[C@H]5/C=C\CCCCC[C@H](NC(=O)OC5CCCC5)C(=O)N4C3)cc(-c3csc(NC(C)C)n3)nc2c1 [CILUPREVIR]	–
–	–	CC(C)(C)NC(=O)N[C@H](C(=O)N1C[C@H]2[C@@H]([C@H]1C(=O)NC(CC1CCC1)C(=O)C(N)=O)C2(C)C)C(C)(C)C (some centres not stated)	inhibition [2]: inactive
1860	45	COc1ccc2c(OC[C@@H]3C[C@H]4C(=O)N(C)CCCC/C=C\[C@H]5C[C@]5(C(=O)NS(=O)(=O)C5CC5)NC(=O)N34)cc(-c3ccccc3)nc2c1	–
< 750	< 1000	COc1ccc2c(OC[C@@H]3C[C@H]4C(=O)N(C)CCCC/C=C\[C@H]5C[C@]5(C(=O)NS(=O)(=O)C5CC5)NC(=O)N34)cc(-c3nc(C(C)C)cs3)nc2c1C	–
< 750	< 1000	COc1ccc2c(OC[C@@H]3C[C@H]4C(=O)N(C)CCCC/C=C\[C@H]5C[C@]5(C(=O)NS(=O)(=O)C5CC5)NC(=O)N34)cc(-c3nc(C(C)C)cs3)nc2c1Cl	–
–	278	COc1ccc2c(OC[C@H]3C[C@@H]4C(=O)N[C@@]5(C(=O)NS(=O)(=O)C6CC6)C[C@@H]5/C=C\CCCCN(C)C(=O)N34)cc(-c3ccccc3)nc2c1	–
242	3.5	COc1ccc2c(OC[C@H]3C[C@@H]4C(=O)N(C)CCCC/C=C\[C@H]5C[C@]5(C(=O)NS(=O)(=O)C5CC5)NC(=O)N34)cc(-c3ccccc3)nc2c1	–
412	1.3	COc1ccc2c(OC[C@@H]3C[C@H]4C(=O)N(C)CCCC/C=C\[C@H]5C[C@]5(C(=O)NS(=O)(=O)C5(C)CC5)NC(=O)N34)cc(-c3nc(C(C)C)cs3)nc2c1	–
45	6.6	COc1ccc2c(OC[C@@H]3C[C@H]4C(=O)N(C)CCCC/C=C\[C@H]5C[C@]5(C(=O)NS(=O)(=O)C5(C)CC5)NC(=O)N34)cc(-c3nc(C(C)C)cs3)nc2c1C	microsomal CLint [3]: > 150 µL/min/mg; microsomal CLint [4]: > 150 µL/min/mg; microsomal CLint [5]: > 150 µL/min/mg; half-life [6]: < 10 min; half-life [7]: < 10 min; half-life [8]: < 10 min
–	2400	COc1ccc2c(OC[C@@H]3C[C@H]4C(=O)N[C@@]5(C(=O)NS(=O)(=O)C6CC6)C[C@@H]5/C=C\CCCCN(C)C(=O)N34)cc(-c3ccccc3)nc2c1	–
–	–	CCC[C@H](NC(=O)[C@@H]1[C@H]2CCC[C@H]2CN1C(=O)[C@@H](NC(=O)[C@@H](NC(=O)c1cnccn1)C1CCCCC1)C(C)(C)C)C(=O)C(=O)NC1CC1 [TELAPREVIR]	inhibition [2]: inactive; IC50 [9]: 600 nM
60	2.1	COc1ccc2c(OC[C@@H]3C[C@H]4C(=O)N(C)CCCC/C=C\[C@H]5C[C@]5(C(=O)NS(=O)(=O)C5(C)CC5)NC(=O)N34)cc(-c3nc(C(C)C)cs3)nc2c1Cl	microsomal CLint [3]: > 150 µL/min/mg; microsomal CLint [4]: > 150 µL/min/mg; microsomal CLint [5]: > 150 µL/min/mg; half-life [6]: < 10 min; selectivity ratio [10]: > 1500; half-life [7]: < 10 min; half-life [8]: < 10 min

Structure (SMILES)	EC50 (Hepatitis C virus) [nM]	IC50 [1] [nM]	other results
COc1ccc2c(OC[C@@H]3C[C@H]4C(=O)N(C)CCCC/C=C\[C@H]5C[C@]5(C(=O)NS(=O)(=O)C5(C)CC5)NC(=O)N34)cc(-c3nc(C(C)C)cs3)nc2c1F	872	16.8	inhibition [2]: inactive
